Assay results as given in US20070135448A1, “Use of cathepsin k inhibitors for treating of severe bone loss diseases” (priority 2003, published 2007).

Key:
[1] = test system: ovariectomized (OVX) cynomolgus monkeys; test: Tolerability in the 18 month OVX cynomolgus monkey study; assay type: in vivo; details: for Tolerability: 18 months
Experimental: (§1) One hundred purpose-bred female cynomolgus monkeys (Macaca fascicularis), 12-13 years of age with closed growth plates are used for this study conducted in compliance with GLP. Eighty animals underwent bilateral ovariectomy and monkeys assigned to the sham group (S) underwent sham surgery. They are dosed twice daily by oral gavage with vehicle (distilled water) or COMPOUND A maleate (COMPOUND A-AF) for 18 months (Table 1).
Ovariectomized (OVX) cynomolgus monkeys are treated orally for 18 months with 3, 10, or 50/30 mg/kg COMPOUND A maleate twice daily (bid).

[2] = test system: ovariectomized (OVX) cynomolgus monkeys; test: DXA bone mineral density of lumbar spine and femur in OVX cynomolgus monkeys, 18 months oral treatment; assay type: in vivo, cynomolgus monkeys (Macaca fascicularis)
Experimental: The present, 18 month long study is performed in order to assess the effect of COMPOUND A on bone in a non-human primate model of osteoporosis.
as §1
(§2) DXA (Dual Energy X-ray Absorptiometry) of the lumbar spine and femur is performed twice prior to and at 3 months intervals during treatment. Compression test of third lumbar vertebra and a three-point bending test for the midshaft femur are carried out according to standard procedures. In brief, the cranial and caudal ends of each vertebral body are cut off to obtain a vertebral body specimen with two parallel surfaces and a height of approximately 7 mm. Each specimen is placed between two plates and a load applied at a constant displacement rate of 6 mm/min until failure in an Instron Mechanical Testing Machine. The femur is placed on the lower supports of a three point bending fixture with the anterior side facing downward in an Instron Mechanical Testing Machine. Load is applied at a constant displacement rate of […] until failure.
(§3) All group data are first checked to ensure they meet the assumptions for parametric analysis (normality, homogeneity of variances). Data are transformed, if necessary, to meet the assumptions as closely as possible. Results using transformed data are used for interpretation. In general, data are analyzed by one-way analysis of variance (1-way ANOVA) for variables assessed only once during the treatment phase of the study. For variables assessed repeatedly during the treatment phase, a two-way (group, time) analysis of covariance (ANCOVA) with repeated measures on time is used. For each ANCOVA evaluation, average baseline data for individual animals is used as the covariate. Results are presented as Mean±SEM (standard error of mean).

postmenopausal women = test: 12-week double-blind placebo controlled phase IIA study, biochemical markers of bone resorption and formation; assay type: in vivo, human
Experimental: In a 12-week treatment, multicenter, double-blind, randomized, placebo-controlled, parallel group, a dose-ranging, safety, tolerability and efficacy trial with Compound A in postmenopausal women, with 3 weeks follow-up is conducted.
The primary objectives of the study are to assess the effect of Compound A on biochemical markers of bone resorption and bone formation, and to evaluate its safety and tolerability profile. Secondary objectives are to assess the changes in biochemical markers after the end of treatment, and to study the pharmacokinetics of Compound A and its metabolite during and after 12 weeks of treatment.
The population of subjects is normal healthy postmenopausal women. The reason for not investigating osteopenic women is the following: The efficacy endpoints of the study are biochemical markers of bone turnover. These variables are not directly correlated with BMD in man. […] They are at least 5 years postinenopause, mainly because biomarkers are expected to fluctuate less in these women than in the perimenopause. […]
Four doses are tested, 5, 10, 25, and 50 mg od. The duration of the study is 12 weeks, with a 3-week follow-up, 12 weeks treatment allows to assess the timecourse of biomarkers of both, bone resorption and bone formation and to ascertain that a steady-state in biomarkers is achieved.

[3] = test system: ovariectomized (OVX) cynomolgus monkeys; test: Compression test of third lumbar vertebra (LV3), OVX cynomolgus monkeys after 18 months treatment; assay type: in vivo, cynomolgus monkeys (Macaca fascicularis)
Experimental: as §1
DXA (Dual Energy X-ray Absorptiometry) of the lumbar spine and femur is performed twice prior to and at 3 months intervals during treatment. Compression test of third lumbar vertebra and a three-point bending test for the midshaft femur are carried out according to standard procedures. In brief, the cranial and caudal ends of each vertebral body are cut off to obtain a vertebral body specimen with two parallel surfaces and a height of approximately 7 mm. […]
All group data are first checked to ensure they meet the assumptions for parametric analysis (normality, homogeneity of variances). […] In general, data are analyzed by one-way analysis of variance (1-way ANOVA) for variables assessed only once during the treatment phase of the study. For variables assessed repeatedly during the treatment phase, a two-way (group, time) analysis of covariance (ANCOVA) with repeated measures on time is used. […]

[4] = test system: ovariectomized (OVX) cynomolgus monkeys; test: Mineral apposition rate (MAR) at the femoral neck, OVX cynomolgus monkeys; assay type: in vivo, cynomolgus monkeys (Macaca fascicularis)
Experimental: as §1
Mineral apposition rate (MAR), an indicator of bone formation, is reduced at cancellous bone for the femoral neck by the mid and high dose (FIG. 6) consistent with the action of an inhibitor of bone turnover.

[5] = test system: ovariectomized (OVX) cynomolgus monkeys; test: 3-point bending test of midshaft femur, OVX cynomolgus monkeys after 18 months treatment; assay type: in vivo, cynomolgus monkeys (Macaca fascicularis); details: mean ± SEM; for Max load: n = 19-20
Experimental: as §1, §2, §3

[6] = High group: 2 × 50 mg/kg/day 1st month, 2 × 30 months 2-18, oral
[7] = High group: 2 × 50 mg/kg/day 1st month, 2 × 30 months 2-18, oral, * p < 0.05 versus OVX
[8] = Low group: 2 × 3 mg/kg/day oral, 18 months
[9] = Low group: 2 × 3 mg/kg/day oral, 18 months, * p < 0.05 versus OVX
[10] = Mid group: 2 × 10 mg/kg/day oral, 18 months

CCCN1CCN(c2ccc(C(=O)NC3(C(=O)NCC#N)CCCCC3)cc2)CC1 [Compound A, N-[1-(cyanomethyl-carbamoyl)-cyclohexyl]-4-(4-propyl-piperazin-1-yl)-benzamide]
Food intake and body weight ([1]; 50 mg/kg bid oral, first month (then reduced to 30 mg/kg bid)): decreases in food intake and body weight | Tolerability ([1]; 3 and 10 mg/kg bid oral): well tolerated | Body weight gain ([1]; High group after reduction to 30 mg/kg bid, until end of study): remains significantly lower until the end of the study | Tolerability ([1]; OVX cynomolgus monkeys, oral twice daily, overall): generally well tolerated | Whole femur BMD (DXA) compared to group O (OVX) ([2]; all three dose levels, over the whole 18 months period): significant increase | Lumbar spine LV1-4 BMD (DXA), effect versus OVX ([2]; all three doses (3, 10, 50/30 mg/kg bid), 18 months, p<0.05 versus OVX): inhibit the effect of OVX | Lumbar spine LV1-4 BMD (DXA), efficacy of group H relative to other doses ([2]; group H, 50/30 mg/kg bid): tended to be less efficacious | Anterior-posterior diameter of the femur midshaft ([2]; groups L and H versus groups S and O): tends to be larger | Whole femur BMD (DXA) compared to sham ([2]; treated groups, significant at month 9 for groups L and H and at month 18 for group M): even above sham for most time points | Bone resorption marker serum CTX versus placebo (postmenopausal women; all doses except 5 mg (10, 25, 50 mg od), all time points, p<0.001): significant difference | Action on bone resorption marker (sCTX1) (postmenopausal women; postmenopausal women, 5, 10, 25, 50 mg od, 12 weeks): potent and rapid action | Bone formation markers (serum osteocalcin, BSAP) over time (postmenopausal women; postmenopausal women, 12 weeks): the decrease of suppression is less than that seen with the bone resorption markers | Other resorption biomarkers (serum NTX, urinary NTX) (postmenopausal women; postmenopausal women, 12 weeks): support results seen with serum CTX | Maximum load in LV3 compression test versus OVX ([3]; all treatment groups (L, M, H), 18 months): increase maximum load | Maximum load in LV3 compression test, group H ([3]; group H, 50/30 mg/kg bid, p<0.01 versus OVX, p<0.05 versus Sham): increased above the group S level | Mineral apposition rate (MAR) at the periosteal side of the femoral neck ([4]; all doses, even the low dose is active): highly significantly increased | Mineral apposition rate (MAR) at cancellous bone for the femoral neck ([4]; mid and high dose): reduced | Moment of inertia [5, 6]: 322 ± 20 mm^4 | Ultimate strength [5, 6]: 196 ± 4 N/mm^2 | Energy [5, 7]: 1276 ± 87 * mJ | Toughness [5, 7]: 3.6 ± 0.2 MJ/m³ | Max load [5, 6]: 973 ± 45 N | Moment of inertia [5, 8]: 322 ± 20 mm^4 | Ultimate strength [5, 8]: 195 ± 5 N/mm^2 | Energy [5, 9]: 1305 ± 91 * mJ | Toughness [5, 9]: 3.7 ± 0.2 MJ/m³ | Max load [5, 8]: 972 ± 38 N | Energy [5, 10]: 1126 ± 88 mJ | Moment of inertia [5, 10]: 290 ± 16 mm^4 | Toughness [5, 10]: 3.3 ± 0.2 MJ/m³ | Ultimate strength [5, 10]: 193 ± 3 N/mm^2 | Max load [5, 10]: 894 ± 39 N
